Where “and” joins values, the source holds several entries; their conditions need not be identical. Equal entries are not always repeated.
Tests used:
[1] = system: adults with symptomatic oHCM; experiment: PIONEER-OLE Phase 2 open-label extension study of mavacamten; assay type: in vivo
Method: All subjects were started on a dose of 5 mg QD.
To maximize safety, the starting dose will be 5 mg for all subjects. Subjects will return at Week 4 (±4 days) for a plasma PK sample to measure drug levels and to undergo echocardiography to determine LVOT gradient (at rest, after a Valsalva maneuver, and after exercise) and left ventricular ejection fraction (LVEF).
After Week 6, additional study visits will occur at Week 8 (±7 days), Week 12 (±7 days), and every 12 weeks (±7 days) thereafter. Subjects also will be contacted by phone in between clinic visits, at Week 18 and every 12 weeks thereafter. An end of study (EOS) visit will occur 12 weeks (±7 days) after the last administration of study drug. Visits (including the Screening visit which serves as the baseline) will entail recording vital signs, targeted physical examination, ECGs, safety laboratory tests, N-terminal pro b-type natriuretic peptide (NT-proBNP), adverse events (AEs), New York Heart Association (NYHA) functional class, Kansas City Cardiomyopathy Questionnaire (KCCQ) score, and concomitant medications. At Weeks 4, 8, 24, 36, 48, 60, 72, 96, 120, 144, 156/early termination (ET), and 168/EOS, a predose blood sample for assessment of drug concentration will be obtained. A standard TTE (including but not limited to assessment of LVOT gradient at rest and after Valsalva) will be performed at baseline, at Weeks 4, 8, 12, 24, 36, 48, 72, 96, 120, 144, 156/ET, and 168/EOS. In addition, a stress echocardiogram (with assessment of LVOT gradient post-exercise) will also be performed at baseline, Weeks 4, 48, 72, 156/ET, and 168/EOS.
The study endpoints include safety, tolerability, and select measures of efficacy using individualized dosing. Key measurements include LVOT gradient, LVEF, NT-proBNP.
• 1. Frequency and severity of treatment-emergent AEs and SAEs, • 2. Frequency of cardiovascular (CV) death, • 3. Frequency of sudden death, • 4. Frequency of CV hospitalization, • 5. Frequency of heart failure requiring the initiation of oral loop diuretics or the administration of intravenous loop diuretics, • 6. Frequency of myocardial infarction, • 7. Frequency of ventricular arrhythmias (ventricular tachycardia, ventricular fibrillation, ventricular flutter, torsade de pointe), • 8. Frequency of syncope, • 9. Frequency of seizures, • 10. Frequency of stroke, • 11. Frequency of LVEF≤45 as measured by echocardiography, • 12. QT and QTcF intervals over time. Efficacy and Pharmacodynamics Include: • 1. Post-exercise, post-Valsalva, and resting LVOT gradient over time, • 2. NYHA functional class over time, • 3. KCCQ scores over time, • 4. NT-proBNP over time, • 5. Frequency of septal reduction therapy.

[2] = system: conscious fully-instrumented dogs with normal cardiac function; experiment: Cardiac reserve under acute β-AR (dobutamine) challenges in conscious instrumented dogs; assay type: in vivo, dog
Method: In addition, the effects of MAVA (at 1.5 mg/kg PO, via gavage) on cardiac reserve were evaluated via acute β-AR challenges (dobutamime: 2, 5, and 10 ug/kg/min IV) in conscious fully-instrumented (LVPV group) dogs with normal cardiac function (n=8). These challenges were performed before/after dosing (+3-hour) in control- and MAVA-treated animals both under normal cardiac physiological conditions (n=4) and under (mild) concomitant cardio-depression induced via either selective β-AR blockade (+BB, metoprolol 0.5±0.1 mg/kg PO tid; n=4) or L-type Ca2+-channel blockade (+CCB, verapamil at 5±1 mg/kg PO tid; n=4); pharmacological blockades were established for 7 days prior to the MAVA treatment. Both peak and dose-responses were evaluated at steady state.
Throughout these experiments, analog signals were digitally acquired (1000 Hz) and recorded continuously with a data acquisition/analysis system (IOX; EMKA Technologies). Heart rate (HR), end-systolic (ESP) and end-diastolic pressures (EDP), as well as the peak rates of pressure rise/decline (dP/dtmax and dP/dtmin), the contractility index (CI: dP/dt/P at dP/dtmax), and the time-constant of myocardial relaxation (tau1/2, time for 50% decay from dP/dtmin) were derived from the LV pressure signal. Meanwhile, the end-systolic (ESV) and end-diastolic volumes (EDV) were measured from the LV volume signal derived from the implanted myocardial crystals. LV volumes were derived assuming a Teichholz model, and stroke volume (SV=EDV−ESV), ejection fraction (EF=SV/EDV), as well as cardiac output (CO=SV·HR) were calculated; in a subset of animals, SV and CO values were verified from data derived from the implanted aortic flow […]. […] The slopes of the preload-recruitable stroke work (PRSW; stroke work vs. EDV) and the end-systolic pressure-volume relationships (ESPVR; end-systolic elastance, Ees) were derived by software using linear models (IOX; EMKA Technologies), and were used as load-independent inotropic indices. Ventricular load was estimated by the effective arterial elastance (Ea=ESP/SV). […]

In the case of CC(C)n1c(=O)cc(N[C@@H](C)c2ccccc2)[nH]c1=O [mavacamten, (S)-3-Isopropyl-6-((1-phenylethyl)amino)pyrimidine-2, 4(1H,3H)-dione], the “cardiac-related adverse events attributed to study drug” value ([1]; 48-week period) is reported as “no cardiac-related adverse events (AEs) attributed to study drug”, the “E/e′ lateral, mean” value ([1]; Change from Baseline to Week 48) is reported as −3.4 and the “E/e′ lateral, mean” value ([1]; Week 12) is reported as 9.8. The “IVS (interventricular septal thickness), mean” value ([1]; Week 12) was 16.0 mm, the “IVS (interventricular septal thickness), mean” value ([1]; Week 12, listed as Mavacamten) was 15.9 ± 2.7 mm and the “E/e′ lateral, mean” value ([1]; Week 24) was 10.2. For the same compound, the “IVS (interventricular septal thickness), mean” value ([1]; Week 24) was 15.8 mm, the “IVS (interventricular septal thickness), mean” value ([1]; Week 24, listed as Mavacamten) was 15.8 ± 2.7 mm and the “E/e′ lateral, mean” value ([1]; Week 36) was 8.5. The “IVS (interventricular septal thickness), mean” value ([1]; Week 36) was 15.4 mm, the “IVS (interventricular septal thickness), mean” value ([1]; Week 36, listed as Mavacamten) was 15.4 ± 2.7 mm and the “E/e′ lateral, mean” value ([1]; Week 48) was 9.1. The “IVS (interventricular septal thickness), mean” value ([1]; Week 48) was 15 mm and 15.3 mm, the “IVS (interventricular septal thickness), mean change from baseline” value ([1]; Week 48) was −1.5 mm and the “LVEF, mean change from baseline” value ([1]; Week 48) was −1.8%. For the same compound, the “NT-proBNP, median” value ([1]; Week 48) was 136.5 pg/mL, the “patients who achieved a post-exercise LVOT gradient <30 mm Hg” value ([1]; Week 48) was “Five” and the “IVS (interventricular septal thickness), mean” value ([1]; Week 48, listed as Mavacamten) was 15.5 ± 2.0 mm. For the same compound, the “IVS (interventricular septal thickness), mean change from baseline” value ([1]; Week 48, listed as Mavacamten) was −1.2 mm and −1.2 ± 2.3 mm, the “median NT-proBNP, change from baseline” value ([1]; Week 60) was -481 pg/mL and the LVEF maintained ([1]; all patients at all timepoints) was “above 50%”. The “AEs considered potentially related to study drug” value ([1]; in 3 subjects, 7 mild, 1 moderate) was 8, the “β-AR induced acceleration of tau” value ([2]; at any given dP/dtmax gain) was “enhanced” and the “β-AR elevations in dP/dtmax and CI” value ([2]; dobutamine challenge, MAVA 1.5 mg/kg PO) was “blunted”.
